Source: patent US7947694B2, “Substituted pyrazolo[3,4-D]pyrimidines as cell cycle kinase inhibitors” (Janssen Pharmaceutica NV, priority 2005, dated 2011)
Structures can show the parent of a compound that is named as a salt.

Legend:
[1] = molecular target: CDK4/cyclinD1 (Homo sapiens, UniProt P11802); assay: In vitro filtration assay for CDK4 inhibitory activity; assay type: biochemical; details: GST-pRb phosphorylation, [33P]-ATP, 1 μM unlabeled ATP, 25° C., 45 minutes; read-out: cdk4 filter (pIC50) (converted)
Chain of CDK4/cyclinD1 (P11802 whole entry, species assumed): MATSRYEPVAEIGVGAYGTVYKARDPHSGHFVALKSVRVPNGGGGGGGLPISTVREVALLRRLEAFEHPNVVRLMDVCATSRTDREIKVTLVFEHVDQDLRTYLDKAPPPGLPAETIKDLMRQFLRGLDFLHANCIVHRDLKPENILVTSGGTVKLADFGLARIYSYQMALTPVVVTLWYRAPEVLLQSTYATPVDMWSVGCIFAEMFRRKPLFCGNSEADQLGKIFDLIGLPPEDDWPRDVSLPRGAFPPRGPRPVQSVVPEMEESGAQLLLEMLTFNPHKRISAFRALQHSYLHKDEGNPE
Chain of CDK4/cyclinD1 (P24385 whole entry partner, species assumed): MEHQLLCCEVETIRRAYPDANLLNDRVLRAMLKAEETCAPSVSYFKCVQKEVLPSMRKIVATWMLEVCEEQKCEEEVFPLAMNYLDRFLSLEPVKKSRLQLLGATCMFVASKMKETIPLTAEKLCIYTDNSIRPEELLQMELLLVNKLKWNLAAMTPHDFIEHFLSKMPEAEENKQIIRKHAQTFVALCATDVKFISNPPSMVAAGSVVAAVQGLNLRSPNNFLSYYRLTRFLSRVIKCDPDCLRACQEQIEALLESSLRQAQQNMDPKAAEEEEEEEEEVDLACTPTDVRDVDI
Method: C.1. In Vitro Filtration Assay for CDK4 Inhibitory Activity
(§1) Compounds of the present invention were tested in an in vitro filtration assay assessing CDK4 activity by means of its pRb-phosphorylation activity using [^33P]-ATP as phosphor donor. The radioactive phosphorylated pRb is then captured on filtermats and the incorporated [^33P] quantitated using a phosphorage storage screen.
The CDK4 kinase reaction is performed at 25° C. for 45 minutes in a 96-well microtiterplate. The 25 μl reaction volume contains 50 mM Hepes pH 7.5, 10 mM NaF, 10 mM MgCl2, 1 mM Na3VO4, 1 μM unlabeled ATP, 1 mM DTT, 0.5 μCi AT^33P, 0.76 μg/well GST-pRb, 50 ng CDK4/cyclinD1/well and 0.2% compound in 100% DMSO.
(§2) The reaction is stopped by adding 5 μl of a 3% phosphoric acid solution. 10 μl of the reaction mixture is then spotted onto a Filtermat P30 filter (Wallac) and washed 3 times for 5 min. in 75 mM phosphoric acid and 1 time for 5 min. in methanol prior to drying and quantification on the Typhoon (Amersham) using a phosphorage storage screen.
(§3) C.4. Calculation of pIC50 Values
(§4) For each experiment, controls (containing enzyme (complex) and DMSO without compound), a blank incubation (containing DMSO but no enzyme (complex) or compound) and samples (containing enzyme (complex) and compound dissolved in DMSO) were run in parallel. All compounds tested were dissolved and eventually further diluted in DMSO. […] In each test, the blank value was subtracted from both the control and the sample values. The control sample represented maximal enzyme activity. For each sample, the amount of cpm was expressed as a percentage of the mean cpm value of the controls. When appropriate, IC50-values (concentration of the drug, needed to reduce the enzyme activity to 50% of the control) were computed using linear interpolation between the experimental points just above and below the 50% level. Herein the effects of test compounds are expressed as pIC50 (the negative log value of the IC50-value).

[2] = molecular target: T1, Aurora A (Homo sapiens, UniProt O14965); assay: In vitro filtration assay for AURORA A inhibitory activity; assay type: biochemical; details: 200 μM Kemptide substrate, [33P]-ATP, 1 μM unlabeled ATP, 25° C., 40 minutes; read-out: Aurora A see C.2 (pIC50) (converted)
T1 sequence (O14965 1-403): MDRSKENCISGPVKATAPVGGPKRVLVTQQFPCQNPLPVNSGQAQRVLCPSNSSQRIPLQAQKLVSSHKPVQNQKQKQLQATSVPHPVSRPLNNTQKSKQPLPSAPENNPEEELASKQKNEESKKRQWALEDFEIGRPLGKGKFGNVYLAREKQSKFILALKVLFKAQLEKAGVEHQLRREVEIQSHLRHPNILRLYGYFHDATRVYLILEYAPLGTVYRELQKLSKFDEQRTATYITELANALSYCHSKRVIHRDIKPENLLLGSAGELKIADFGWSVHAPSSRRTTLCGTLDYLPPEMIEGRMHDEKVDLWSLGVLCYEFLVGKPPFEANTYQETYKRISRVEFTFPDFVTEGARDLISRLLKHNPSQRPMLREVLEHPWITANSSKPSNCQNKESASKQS
Method: C.2. In Vitro Filtration Assay for AURORA A Inhibitory Activity
as §1, with “AURORA A” for “CDK4”, “substrate-phosphorylation” for “pRb-phosphorylation”, “substrate” for “pRb”
The Aurora-A kinase reaction is performed at 25° C. for 40 minutes in a 96-well microtiterplate. The 25 μl reaction volume contains 12 mM MOPS pH 7, 0.4 mM EDTA, 0.002% Brij35, 1% glycerol, 0.02% beta-mercapto-ethanol, 0.2 mg/ml BSA, 1 μM unlabeled ATP, 0.2 μCi [^33P]-ATP, 200 μM Kemptide, 3 ng Aurora A/well and 0.2% compound in 100% DMSO.
as §2, §3, §4

[3] = molecular target: Aurora-B (Homo sapiens, UniProt Q96GD4); assay: In vitro filtration assay for AURORA B inhibitory activity; assay type: biochemical; details: peptide (C(LRRWSLG)×4) substrate, [33P]-ATP, 1 μM unlabeled ATP, 25° C., 40 minutes; read-out: Aurora B see C.3 (pIC50) (converted)
Chain of Aurora-B (Q96GD4 whole entry): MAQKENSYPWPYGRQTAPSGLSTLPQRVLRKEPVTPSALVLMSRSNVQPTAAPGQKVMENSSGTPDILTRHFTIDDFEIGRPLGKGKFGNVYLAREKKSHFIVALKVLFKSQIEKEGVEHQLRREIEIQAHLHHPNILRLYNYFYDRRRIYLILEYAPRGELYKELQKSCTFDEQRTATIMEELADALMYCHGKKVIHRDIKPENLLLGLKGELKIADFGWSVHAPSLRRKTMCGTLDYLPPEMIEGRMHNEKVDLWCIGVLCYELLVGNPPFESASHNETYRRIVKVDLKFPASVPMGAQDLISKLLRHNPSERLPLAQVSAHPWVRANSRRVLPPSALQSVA
Method: C.3 In Vitro Filtration Assay for AURORA B Inhibitory Activity
as §1, with “AURORA B” for “CDK4”, “substrate-phosphorylation” for “pRb-phosphorylation”, “substrate” for “pRb”
The Aurora-B kinase reaction is performed at 25° C. for 40 minutes in a 96-well microtiterplate. The 25 μl reaction volume contains 60 mM Hepes pH 7.5, 3 mM MgCl2, 3 mM MnCl2, 3 μM Na3VO4, 50 μg/ml PEG20000, 1 μM unlabeled ATP, 1 mM DTT, 0.2 μCi AT^33P, 0.25 μg/well peptide (C(LRRWSLG)×4), 100 ng Aurora-B/well and 0.2% compound in 100% DMSO.
as §2, §3, §4

| SMILES | melting point | IC50 [1] | IC50 [2] | IC50 [3] |
| --- | --- | --- | --- | --- |
| COCCCNCc1ccc(Nc2ncc3cnn(C4CCCCC4)c3n2)cc1 (as salt: HCl) [Co. No. 2] | 212 to 214 °C |  |  |  |
| CCN(CC)CC(O)COc1ccc(Nc2ncc3cnn(C4CCCCC4)c3n2)cc1 (centres unmarked) [Co. No. 1] |  | 7.94 nM | 1580 nM | > 10000 nM |
| COCCCNCc1ccc(Nc2ncc3cnn(C4CCCCC4)c3n2)cc1 [Co. No. 2] |  | 6.31 nM | 158 nM | > 10000 nM |
| c1ncn(-c2ccc(Nc3ncc4cnn(C5CCCCC5)c4n3)cc2)n1 [Co. No. 3] | 222.5 to 224 °C | 15.8 nM | 126 nM | 7940 nM |
| c1ccc2c(c1)CC(NCc1ccc(Nc3ncc4cnn([C@H]5C[C@@H]6CC[C@H]5C6)c4n3)cc1)C2 [Co. No. 4] |  | 25.1 nM | 316 nM | 316 nM |
| COCCCNS(=O)(=O)c1ccc(Nc2ncc3cnn(C4CCCCC4)c3n2)cc1 [Co. No. 5] |  | 1260 nM | 631 nM | > 10000 nM |
| CCN(CC)CCNC(=O)c1ccc(Nc2ncc3cnn(C4CCCCC4)c3n2)cc1 [Co. No. 6] |  | 25.1 nM | 1580 nM | > 10000 nM |
| CCN(CC)CCCOc1ccc(Nc2ncc3cnn(C4CCCCC4)c3n2)cc1 [Co. No. 7] |  | 20 nM | > 10000 nM | > 10000 nM |
| COCCCN(Cc1ccc(Nc2ncc3cnn(C4CCCCC4)c3n2)cc1)C(=O)OC(C)(C)C [Co. No. 8] |  | 1000 nM | 631 nM | > 10000 nM |
| COCCCNCc1ccc(Nc2ncc3cnn([C@H]4C[C@@H]5CC[C@H]4C5)c3n2)cc1 [Co. No. 9] |  | 79.4 nM | 251 nM | 158 nM |
| COCCCNCc1ccc(Nc2ncc3cnn([C@H]4C[C@@H]5CC[C@H]4C5)c3n2)cc1 [Co. No. 10] |  | 31.6 nM | 200 nM | 200 nM |
| COCCCN(Cc1ccc(Nc2ncc3cnn([C@H]4C[C@@H]5CC[C@H]4C5)c3n2)cc1)C(=O)OC(C)(C)C [Co. No. 11] |  | 2000 nM | 794 nM | 5010 nM |
| COCCCNCc1ccc(Nc2ncc3cnn(C4CCOCC4)c3n2)cc1 [Co. No. 12] |  | 631 nM | 3980 nM | 7940 nM |
| COCCCN(Cc1ccc(Nc2ncc3cnn(C4CCOCC4)c3n2)cc1)C(=O)OC(C)(C)C [Co. No. 13] |  | 2000 nM | 100 nM | 794 nM |
| c1cc2cc(Nc3ncc4cnn(C5CCCCC5)c4n3)ccc2[nH]1 [Co. No. 14] |  | 158 nM | 316 nM | 7940 nM |
| CC(C)(C)OC(=O)N(Cc1ccc(Nc2ncc3cnn(C4CCCCC4)c3n2)cc1)C1Cc2ccccc2C1 [Co. No. 15] |  | > 10000 nM | 1000 nM | > 10000 nM |
| c1ccc2c(c1)CC(NCc1ccc(Nc3ncc4cnn(C5CCCCC5)c4n3)cc1)C2 [Co. No. 16] |  | 12.6 nM | 251 nM | 7940 nM |
| O=C(NC1Cc2ccccc2C1)c1ccc(Nc2ncc3cnn(C4CCCCC4)c3n2)cc1 [Co. No. 17] |  | 63.1 nM | 316 nM | 501 nM |
| c1ccc2c(c1)CC(NCc1ccc(Nc3ncc4cnn(C5CCOCC5)c4n3)cc1)C2 [Co. No. 18] |  | 63.1 nM | 3160 nM | 6310 nM |
| CC(C)(C)OC(=O)N(c1ccc(CN(C(=O)OC(C)(C)C)C2Cc3ccccc3C2)cc1)c1ncc2cnn([C@H]3C[C@@H]4CC[C@H]3C4)c2n1 [Co. No. 19] |  | > 10000 nM | 158 nM | 631 nM |
| CC(C)(C)OC(=O)N(Cc1ccc(Nc2ncc3cnn([C@H]4C[C@@H]5CC[C@H]4C5)c3n2)cc1)C1Cc2ccccc2C1 [Co. No. 20] |  | > 10000 nM | 6310 nM | > 10000 nM |
| CN(C)CCOC(=O)c1ccc(Nc2ncc3cnn(C4CCCCC4)c3n2)cc1 [Co. No. 21] |  | 100 nM | 631 nM | 7940 nM |
